# Measurements taken from US11161830B2, “4-pyridone compound or salt thereof, and pharmaceutical composition and formulation including same” (priority 2017, dated 2021).
# pIC50: −log10 of the molar value. Read-outs that look alike come from different tables or passages of the source.
# Test system: HBV (genotype CAT)
# Assay: Test Example 2-2: anti-HBV assay in PXB-cells (fresh human hepatocytes)
# Format: cell-based
# Conditions: Hepatitis B virus, Hepatocyte
# Procedure: Using fresh human hepatocytes (PXB-cells, manufactured by PhenixBio Co., Ltd.) collected from a PXB mouse (a chimeric mouse with human hepatocytes), the anti-HBV activity of the representative compounds was evaluated in the following procedure.
# The following was used as a medium:
# DMEM (manufactured by Sigma)+0.25 μg/mL insulin (manufactured by Wako)+1% penicillin/streptomycin. (manufactured by Sigma)+20 mmol/L HEPES (manufactured by Sigma)+15 μg/mL L-proline (manufactured by Sigma)+50 nmol/L dexamethasone (manufactured by Sigma)+5 ng/mL EGF (manufactured by Peprotech)+0.1 mmol/L ascorbic acid 2-phosphate (manufactured by Wako)+10% FBS+2% DMSO
# Each of the test compounds) was further added to the medium to prepare a test solution containing each of the test compounds at various concentrations.
# (1) PXB-cells seeded at a seeding density of 2.1×10^5 cells/cm^2 in a 96-well microliter plate were incubated in a 5% CO2 incubator at 37° C. until a day on which the cells were infected.
# (2) A HBV (genotype CAT) prepared by transfecting an HBV plasmid into an HepG2 cell was suspended in the medium containing 4% PEG-8000, and added to the plate of (1) at about 30 copies/cell such that the PXB cells were infected (100 μL/well), and the plate was incubated in a 5% CO2 incubator at 37° C. for 1 day.
# (3) The culture supernatant on day 1 post infection was removed and the cells were washed three times with DMEM containing 10% FBS and 1% penicillin/streptomycin. Then, the medium was added to the plate (100 μL/well) and the plate was incubated in a 5% CO2 incubator at 37° C. for 1 day.
# (4) The culture supernatant on day 2 post infection was removed and the cells were washed three times with DMEM containing 10% FBS and 1% penicillin/streptomycin. Then, the medium was added to the plate (100 μL/well) and the plate was incubated in a 5% CO2 incubator at 37° C. for 5 days.
# (5) The culture supernatant on day 7 post infection was removed, the medium was added to the plate (100 μL/well), and the plate was incubated in a 5% CO2 incubator at 37° C. for 5 days.
# (6) The culture supernatant on day 12 post infection was removed, the medium was added to the plate (100 μL/well), and the plate was incubated in a 5% CO2 incubator at 37° C. for 5 days.
# (§1) (7) The culture supernatant on day 17 post infection was removed, the test solution was added to the plate (100 μL/well), and the plate was incubated in a 5% CO2 incubator at 37° C. for 5 days. As a control without the compound added, the medium was added to the plate (100 μL/well) and the plate was incubated in a 5% CO2 incubator at 37° C. for 5 days.
# as §1, with “(8)” for “(7)”, “22” for “17”
# as §1, with “(9)” for “(7)”, “27” for “17”
# (10) The culture supernatant on day 32 post infection was collected.
# (11) The collected culture supernatant on day 32 post infection was treated with a mixture of Buffer AL (manufactured by QIAGEN) and Proteinase K (manufactured by Invitrogen). The amount of HBV-DNA in the obtained solution was absolutely quantified by a real-time PCR method. In addition, the amount of HBsAg in the culture supernatant was absolutely quantified by chemiluminescent enzyme immunoassay using Lumipulse (registered trademark) HBsAg-HQ (manufactured by Fujirebio Inc.). A relative viral load (%) with respect to a control without the compound added was each calculated. […]
# [1] = read-out: IC50 HBV-DNA, PXB-cells infected with HBV genotype CAT, culture supernatant on day 32 post infection
# [2] = read-out: IC50 HBsAg, PXB-cells infected with HBV genotype CAT, culture supernatant on day 32 post infection
SMILES,pIC50 [1],pIC50 [2]
"COC1CN(c2nc3ccc(-n4cc(C(=O)O)c(=O)cc4-c4ccc5c(c4)OC[C@@H]4CCCN54)cc3s2)C1 [Example 18-2, (S)-1-(2-(3-methoxyazetidin-1-yl)benzo[d]thiazol-6-yl)-4-oxo-6-(2,3,3a,4-tetrahydro-1H-benzo[b]pyrrolo[1,2-d][1,4]oxazin-7-yl)-1,4-dihydropyridine-3-carboxylic acid]",> 6.30,> 6.30
"COCCO[C@@H]1CCN(c2ccc(-c3cc(=O)c(C(=O)O)cn3-c3ccc4nc(N5CCOCC5)sc4c3)cc2)C1 [Example 19-1, (R)-6-(4-(3-(2-methoxyethoxy)pyrrolidin-1-yl)phenyl)-1-(2-morpholinobenzo[d]thiazol-6-yl)-4-oxo-1,4-dihydropyridine-3-carboxylic acid]",> 6.30,> 6.30
"CO[C@@H]1CCN(c2ccc(-c3cc(=O)c(C(=O)O)cn3-c3ccc4nc(N5CCOCC5)sc4c3)cc2F)C1 [Example 20-1, (R)-6-(3-fluoro-4-(3-methoxypyrrolidin-1-yl)phenyl)-1-(2-morpholinobenzo[d]thiazol-6-yl)-4-oxo-1,4-dihydropyridine-3-carboxylic acid]",> 6.30,> 6.30
